What was measured:
[1] = Conversion process: active dissolved in supernatant of centrifuged MAS/tannic acid conversion samples; conditions: for Assay (% Dissolved) 10 mins / Assay (% Dissolved) 20 mins / Assay (% Dissolved) 30 mins: in-situ tannate conversion, centrifuged at 6500 rpm; for Assay (% Dissolved) 10 mins: supernatant after 10 min mixing; for Assay (% Dissolved) 20 mins: supernatant after 20 min mixing; for Assay (% Dissolved) 30 mins: supernatant after 30 min mixing
Procedure: The active solution of carbetapentane citrate is prepared by dissolving 24.4 g of carbetapentane citrate into 60 ml of water. 530 ml of purified water is placed in a mixing tank and 53.7 g of MAS is added in small portions while mixing the water to form a dispersion. Once the dispersion is uniform and lump-free, 46.7 g of tannic acid (TA), (three times that of the free base of the active), is folded into the dispersion using a planetary mixer with a sweep blade. […] The salt solution is then added in small portions, while continuing to stir the MAS/tannic acid dispersion using the planetary mixer. After all of the salt solution is added, the weight is made up to 800 g with purified water. Mixing is continued and 5 g samples of the conversion after ten, twenty and thirty minutes of mixing are taken in a centrifuge tube. The samples are subsequently centrifuged at 6500 rpm and the resulting supernatant solution is assayed for the presence of active. At the end of thirty minutes, a 10 g sample of the conversion is taken for assay of the actives.

[2] = cited from earlier work

| Compound | amount of active ingredient present in solution at the ten, twenty and thirty minute mixing times ([1]; in-situ tannate conversion in MAS/tannic acid dispersion) | soluble in water [2] | Assay (% Dissolved) 10 mins [1] [%] | Assay (% Dissolved) 20 mins [1] [%] | Assay (% Dissolved) 30 mins [1] [%] |
| --- | --- | --- | --- | --- | --- |
| CNC[C@H](O)c1cccc(O)c1.Cl [Phenylephrine HCI] | more than 47.0% | about 100.0% | – | – | – |
| CCN(CC)CCOCCOC(=O)C1(c2ccccc2)CCCC1 [Carbetapentane] | – | – | 0.08 | 0.08 | 0.09 |
| CNC[C@H](O)c1cccc(O)c1 [Phenylephrine] | – | – | 37.14 | 47.6 | 47.6 |
| COc1ccc(CN(CCN(C)C)c2ccccn2)cc1 [Pyrilamine] | – | – | 0.10 | 0.10 | 0.11 |
| CN(C)CCC(c1ccc(Cl)cc1)c1ccccn1 (centres unmarked) [Chlorpheniramine] | – | – | 0.12 | 0.13 | 0.14 |

From patent US7094429B2, “Process for preparing tannate liquid and semi-solid dosage forms” (Kiel Laboratories, Inc., priority 2001, dated 2006)
